The values below are quoted from earlier work in patent publication US20250230139A1, “Novel Process and Intermediate for the Preparation of Apalutamide” (BDR Lifesciences Private Limited, priority 2022, published 2025).

For series [1] the following is noted: powder.
Another series deals with prostate cancer. The following applies: mouse xenograft models of prostate cancer.
For series [2] the following is noted: acidic carboxamide moiety.
The conditions of series [3]: strong base (pH>11).

`CNC(=O)c1ccc(N2C(=S)N(c3cnc(C#N)c(C(F)(F)F)c3)C(=O)C23CCC3)cc1F` [Apalutamide, 4-[7-[6-cyano-5-(trifluoromethyl)pyridin-3-yl]-8-oxo-6-thioxo-5,7-diazaspiro[3.4]octan-5-yl]-2-fluoro-N-methylbenzamide]: in series [1], the hygroscopicity entry is “non-hygroscopic”. In addition, in the series with prostate cancer, the apoptosis result is “increased apoptosis”, the tumor cell proliferation entry is reported as “decreased tumor cell proliferation” and the tumor volume entry is listed as “decreased tumor volume”. Further, the “solubility in aqueous media” value (aqueous media over a wide range of pH values) is “practically insoluble”. Moreover, the “solubility in organic solvents” value (organic solvents) is “practically insoluble to very soluble”. Also, the “dissociation constant pKa” value in series [2] is on record as 9.7. Besides, in series [3], the “stability to strong base” value is “unstable”.
